Measurements reported in PubChem BioAssay (NCI).
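96-well plates; 48 h exposure; 5 concentrations. Endpoints by linear interpolation between flanking doses. Not reached: highest tested concentration assigned. TGI denotes the concentration required for complete inhibition of growth.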

Tests used:
Assay in all cases: NCI tumour cell line growth inhibition, 48 h
DLD-1 colon = test system: DLD-1 colon
OVCAR-3 ovarian = test system: OVCAR-3 ovarian
RXF 393 renal = test system: RXF 393 renal
LXFL 529 NSCLC = test system: LXFL 529 NSCLC
RXF-631 renal = test system: RXF-631 renal
SNB-75 CNS = test system: SNB-75 CNS
OVCAR-8 ovarian = test system: OVCAR-8 ovarian
SN12C renal = test system: SN12C renal
SK-OV-3 ovarian = test system: SK-OV-3 ovarian
RPMI-8226 leukemia = test system: RPMI-8226 leukemia
SF-268 CNS = test system: SF-268 CNS
M19-MEL melanoma = test system: M19-MEL melanoma
OVCAR-4 ovarian = test system: OVCAR-4 ovarian
MALME-3M melanoma = test system: MALME-3M melanoma
LOX IMVI melanoma = test system: LOX IMVI melanoma
UO-31 renal = test system: UO-31 renal
NCI-H522 lung = test system: NCI-H522 lung
SK-MEL-5 melanoma = test system: SK-MEL-5 melanoma
KM12 colon = test system: KM12 colon
CAKI-1 renal = test system: CAKI-1 renal
U251 CNS = test system: U251 CNS
OVCAR-5 ovarian = test system: OVCAR-5 ovarian
UACC-257 melanoma = test system: UACC-257 melanoma
HCT-15 colon = test system: HCT-15 colon
HOP-92 NSCLC = test system: HOP-92 NSCLC
SK-MEL-2 melanoma = test system: SK-MEL-2 melanoma
SW-620 colon = test system: SW-620 colon
M14 melanoma = test system: M14 melanoma
HCC-2998 colon = test system: HCC-2998 colon
786-0 renal = test system: 786-0 renal
SR leukemia = test system: SR leukemia
IGROV1 ovarian = test system: IGROV1 ovarian
HT29 colon = test system: HT29 colon
MOLT-4 leukemia = test system: MOLT-4 leukemia
NCI-H23 lung = test system: NCI-H23 lung
NCI-H226 lung = test system: NCI-H226 lung
SF-539 CNS = test system: SF-539 CNS
CCRF-CEM leukemia = test system: CCRF-CEM leukemia
KM20L2 colon = test system: KM20L2 colon
DMS 114 small cell lung = test system: DMS 114 small cell lung
ACHN renal = test system: ACHN renal
K-562 leukemia = test system: K-562 leukemia
SNB-78 CNS = test system: SNB-78 CNS
SF-295 CNS = test system: SF-295 CNS
EKVX NSCLC = test system: EKVX NSCLC
A498 renal = test system: A498 renal
HL-60(TB) leukemia = test system: HL-60(TB) leukemia
NCI-H460 lung = test system: NCI-H460 lung
HCT-116 colon = test system: HCT-116 colon
HOP-62 NSCLC = test system: HOP-62 NSCLC
UACC-62 melanoma = test system: UACC-62 melanoma
A549 NSCLC = test system: A549 NSCLC
SK-MEL-28 melanoma = test system: SK-MEL-28 melanoma
SNB-19 CNS = test system: SNB-19 CNS
HOP-18 NSCLC = test system: HOP-18 NSCLC
COLO 205 colon = test system: COLO 205 colon
TK-10 renal = test system: TK-10 renal
DMS 273 small cell lung = test system: DMS 273 small cell lung
XF 498 CNS = test system: XF 498 CNS

SMILES: Cc1ccccc1NC(=O)C1C(=O)N(c2ccccc2C)C(=O)/C1=N\N (centres undefined)
- TGI (DLD-1 colon): > 100 µM
- TGI (OVCAR-3 ovarian): > 100 µM
- TGI (RXF 393 renal): > 100 µM
- TGI (LXFL 529 NSCLC): > 100 µM
- TGI (RXF-631 renal): > 100 µM
- TGI (SNB-75 CNS): > 100 µM
- TGI (OVCAR-8 ovarian): > 100 µM
- TGI (SN12C renal): > 100 µM
- TGI (SK-OV-3 ovarian): > 100 µM
- TGI (RPMI-8226 leukemia): > 100 µM
- TGI (SF-268 CNS): > 100 µM
- TGI (M19-MEL melanoma): > 100 µM
- TGI (OVCAR-4 ovarian): > 100 µM
- TGI (MALME-3M melanoma): > 100 µM
- TGI (LOX IMVI melanoma): > 100 µM
- TGI (UO-31 renal): > 100 µM
- TGI (NCI-H522 lung): > 100 µM
- TGI (SK-MEL-5 melanoma): > 100 µM
- TGI (KM12 colon): > 100 µM
- TGI (CAKI-1 renal): > 100 µM
- TGI (U251 CNS): > 100 µM
- TGI (OVCAR-5 ovarian): > 100 µM
- TGI (UACC-257 melanoma): > 100 µM
- TGI (HCT-15 colon): > 100 µM
- TGI (HOP-92 NSCLC): > 100 µM
- TGI (SK-MEL-2 melanoma): > 100 µM
- TGI (SW-620 colon): > 100 µM
- TGI (M14 melanoma): > 100 µM
- TGI (HCC-2998 colon): > 100 µM
- TGI (786-0 renal): > 100 µM
- TGI (SR leukemia): > 100 µM
- TGI (IGROV1 ovarian): > 100 µM
- TGI (HT29 colon): > 100 µM
- TGI (MOLT-4 leukemia): > 100 µM
- TGI (NCI-H23 lung): > 100 µM
- TGI (NCI-H226 lung): > 100 µM
- TGI (SF-539 CNS): > 100 µM
- TGI (CCRF-CEM leukemia): > 100 µM
- TGI (KM20L2 colon): > 100 µM
- TGI (DMS 114 small cell lung): > 100 µM
- TGI (ACHN renal): > 100 µM
- TGI (K-562 leukemia): > 100 µM
- TGI (SNB-78 CNS): > 100 µM
- TGI (SF-295 CNS): > 100 µM
- TGI (EKVX NSCLC): > 100 µM
- TGI (A498 renal): > 100 µM
- TGI (HL-60(TB) leukemia): > 100 µM
- TGI (NCI-H460 lung): > 100 µM
- TGI (HCT-116 colon): > 100 µM
- TGI (HOP-62 NSCLC): > 100 µM
- TGI (UACC-62 melanoma): > 100 µM
- TGI (A549 NSCLC): > 100 µM
- TGI (SK-MEL-28 melanoma): > 100 µM
- TGI (SNB-19 CNS): > 100 µM
- TGI (HOP-18 NSCLC): > 100 µM
- TGI (COLO 205 colon): > 100 µM

SMILES: NC(=S)NNC(=O)CCC(=O)Nc1ccc(Cl)cc1Cl
- TGI (DLD-1 colon): > 100 µM
- TGI (OVCAR-3 ovarian): > 100 µM
- TGI (RXF 393 renal): > 100 µM
- TGI (LXFL 529 NSCLC): 86.9 µM
- TGI (RXF-631 renal): > 100 µM
- TGI (SNB-75 CNS): > 100 µM
- TGI (OVCAR-8 ovarian): > 100 µM
- TGI (SN12C renal): > 100 µM
- TGI (SK-OV-3 ovarian): > 100 µM
- TGI (RPMI-8226 leukemia): > 100 µM
- TGI (SF-268 CNS): > 100 µM
- TGI (M19-MEL melanoma): > 100 µM
- TGI (TK-10 renal): > 100 µM
- TGI (OVCAR-4 ovarian): > 100 µM
- TGI (MALME-3M melanoma): > 100 µM
- TGI (LOX IMVI melanoma): > 100 µM
- TGI (UO-31 renal): > 100 µM
- TGI (NCI-H522 lung): > 100 µM
- TGI (SK-MEL-5 melanoma): > 100 µM
- TGI (KM12 colon): > 100 µM
- TGI (CAKI-1 renal): > 100 µM
- TGI (U251 CNS): > 100 µM
- TGI (OVCAR-5 ovarian): > 100 µM
- TGI (UACC-257 melanoma): > 100 µM
- TGI (HCT-15 colon): > 100 µM
- TGI (HOP-92 NSCLC): > 100 µM
- TGI (SK-MEL-2 melanoma): > 100 µM
- TGI (DMS 273 small cell lung): > 100 µM
- TGI (SW-620 colon): > 100 µM
- TGI (M14 melanoma): > 100 µM
- TGI (HCC-2998 colon): > 100 µM
- TGI (786-0 renal): > 100 µM
- TGI (IGROV1 ovarian): > 100 µM
- TGI (HT29 colon): > 100 µM
- TGI (MOLT-4 leukemia): > 100 µM
- TGI (NCI-H23 lung): > 100 µM
- TGI (NCI-H226 lung): > 100 µM
- TGI (SF-539 CNS): > 100 µM
- TGI (CCRF-CEM leukemia): > 100 µM
- TGI (KM20L2 colon): > 100 µM
- TGI (DMS 114 small cell lung): > 100 µM
- TGI (ACHN renal): > 100 µM
- TGI (K-562 leukemia): > 100 µM
- TGI (SNB-78 CNS): > 100 µM
- TGI (SF-295 CNS): > 100 µM
- TGI (A498 renal): > 100 µM
- TGI (HL-60(TB) leukemia): > 100 µM
- TGI (NCI-H460 lung): > 100 µM
- TGI (HCT-116 colon): > 100 µM
- TGI (HOP-62 NSCLC): > 100 µM
- TGI (UACC-62 melanoma): > 100 µM
- TGI (A549 NSCLC): > 100 µM
- TGI (SK-MEL-28 melanoma): > 100 µM
- TGI (SNB-19 CNS): > 100 µM
- TGI (COLO 205 colon): > 100 µM

SMILES: CC(C)(C)OC(=O)NC1CCC[C@H]1O (some centres undefined)
- TGI (DLD-1 colon): > 100 µM
- TGI (OVCAR-3 ovarian): > 100 µM
- TGI (RXF 393 renal): > 100 µM
- TGI (LXFL 529 NSCLC): > 100 µM
- TGI (RXF-631 renal): > 100 µM
- TGI (SNB-75 CNS): > 100 µM
- TGI (OVCAR-8 ovarian): > 100 µM
- TGI (SN12C renal): > 100 µM
- TGI (SK-OV-3 ovarian): > 100 µM
- TGI (SF-268 CNS): > 100 µM
- TGI (M19-MEL melanoma): > 100 µM
- TGI (TK-10 renal): > 100 µM
- TGI (OVCAR-4 ovarian): > 100 µM
- TGI (MALME-3M melanoma): > 100 µM
- TGI (LOX IMVI melanoma): > 100 µM
- TGI (UO-31 renal): > 100 µM
- TGI (NCI-H522 lung): > 100 µM
- TGI (XF 498 CNS): > 100 µM
- TGI (SK-MEL-5 melanoma): > 100 µM
- TGI (KM12 colon): > 100 µM
- TGI (CAKI-1 renal): > 100 µM
- TGI (U251 CNS): > 100 µM
- TGI (OVCAR-5 ovarian): > 100 µM
- TGI (UACC-257 melanoma): > 100 µM
- TGI (HOP-92 NSCLC): > 100 µM
- TGI (SK-MEL-2 melanoma): > 100 µM
- TGI (DMS 273 small cell lung): > 100 µM
- TGI (SW-620 colon): > 100 µM
- TGI (M14 melanoma): > 100 µM
- TGI (HCC-2998 colon): > 100 µM
- TGI (786-0 renal): > 100 µM
- TGI (SR leukemia): > 100 µM
- TGI (HT29 colon): > 100 µM
- TGI (MOLT-4 leukemia): > 100 µM
- TGI (NCI-H23 lung): > 100 µM
- TGI (NCI-H226 lung): > 100 µM
- TGI (SF-539 CNS): > 100 µM
- TGI (CCRF-CEM leukemia): > 100 µM
- TGI (KM20L2 colon): > 100 µM
- TGI (DMS 114 small cell lung): > 100 µM
- TGI (ACHN renal): > 100 µM
- TGI (K-562 leukemia): > 100 µM
- TGI (SNB-78 CNS): > 100 µM
- TGI (SF-295 CNS): > 100 µM
- TGI (EKVX NSCLC): > 100 µM
- TGI (A498 renal): > 100 µM
- TGI (NCI-H460 lung): > 100 µM
- TGI (HCT-116 colon): > 100 µM
- TGI (HOP-62 NSCLC): > 100 µM
- TGI (UACC-62 melanoma): > 100 µM
- TGI (A549 NSCLC): > 100 µM
- TGI (SK-MEL-28 melanoma): > 100 µM
- TGI (SNB-19 CNS): > 100 µM
